Converted amounts (≈) assume the structure as drawn.
How the values were obtained:
Cryptococcus neoformans = test: Antifungal activity against Cryptococcus neoformans H99 after 48 hrs by growth curve assay; type: functional; conditions: var grubii H99 
[1] = Half life in ICR mouse liver microsomes at 1 uM measured up to 45 mins in presence of NADPH by LC-MS/MS analysis; type: ADME, Microsome
[2] = Solubility of the compound; type: physicochemical

COc1cccc2c3c(n(CCCOc4ccc(Cl)cc4)c12)CNCC3.O=C(O)C(F)(F)F
MIC80 (Cryptococcus neoformans): 4 µg/mL

Brc1ccc(NCCCn2c3c(c4ccccc42)CCNC3)cc1.O=C(O)C(F)(F)F
MIC80 (Cryptococcus neoformans): 8 µg/mL

Cc1ccc(OCCCn2c3c(c4ccccc42)CCNC3)cc1.O=C(O)C(F)(F)F
MIC80 (Cryptococcus neoformans): 8 µg/mL

O=C1c2ccccc2C(=O)N1CCCn1c2c(c3ccccc31)CCNC2
MIC80 (Cryptococcus neoformans): 64 µg/mL (≈ 178 µM)

O=C(O)C(F)(F)F.O=[N+]([O-])c1ccc(OCCCn2c3c(c4ccccc42)CCNC3)cc1
MIC80 (Cryptococcus neoformans): 16 µg/mL

CCN(CC)CCCn1c2c(c3ccccc31)CCNC2
MIC80 (Cryptococcus neoformans): 64 µg/mL (≈ 224 µM)

Clc1ccccc1NCCCn1c2c(c3ccccc31)CCNC2.O=C(O)C(F)(F)F
MIC80 (Cryptococcus neoformans): 8 µg/mL

Cc1ccc(NCCCn2c3c(c4ccccc42)CCNC3)cc1.O=C(O)C(F)(F)F
MIC80 (Cryptococcus neoformans): 16 µg/mL

Clc1ccc(OCCCn2c3c(c4c(Cl)cccc42)CCNC3)cc1.O=C(O)C(F)(F)F
MIC80 (Cryptococcus neoformans): 4 µg/mL

Clc1cccc(NCCCn2c3c(c4ccccc42)CCNC3)c1.O=C(O)C(F)(F)F
MIC80 (Cryptococcus neoformans): 8 µg/mL

Fc1ccc(NCCCn2c3c(c4ccccc42)CCNC3)cc1.O=C(O)C(F)(F)F
MIC80 (Cryptococcus neoformans): 16 µg/mL

Cc1ncc2n1-c1ccc(Cl)cc1C(c1ccccc1F)=NC2 [MIDAZOLAM]
half-life at 1 µM [1]: 2 min

Fc1cccc(NCCCn2c3c(c4ccccc42)CCNC3)c1.O=C(O)C(F)(F)F
MIC80 (Cryptococcus neoformans): 16 µg/mL

CCOc1cccc(NCCCn2c3c(c4ccccc42)CCNC3)c1.O=C(O)C(F)(F)F
MIC80 (Cryptococcus neoformans): 64 µg/mL

COc1ccc(N2CCN(CCCn3c4c(c5ccccc53)CCNC4)CC2)cc1
MIC80 (Cryptococcus neoformans): 64 µg/mL (≈ 158 µM)

c1ccc2c(c1)c1c(n2CCCNC2CCCC2)CNCC1
MIC80 (Cryptococcus neoformans): 64 µg/mL (≈ 215 µM)

Fc1ccccc1NCCCn1c2c(c3ccccc31)CCNC2.O=C(O)C(F)(F)F
MIC80 (Cryptococcus neoformans): 16 µg/mL

Clc1ccccc1OCCCn1c2c(c3ccccc31)CCNC2.O=C(O)C(F)(F)F
MIC80 (Cryptococcus neoformans): 4 µg/mL

Brc1ccccc1NCCCn1c2c(c3ccccc31)CCNC2.O=C(O)C(F)(F)F
MIC80 (Cryptococcus neoformans): 8 µg/mL

Clc1cccc(OCCCn2c3c(c4ccccc42)CCNC3)c1.O=C(O)C(F)(F)F
MIC80 (Cryptococcus neoformans): 4 µg/mL

COc1cccc(OCCCn2c3c(c4ccccc42)CCNC3)c1.O=C(O)C(F)(F)F
MIC80 (Cryptococcus neoformans): 16 µg/mL

c1ccc2c(c1)c1c(n2CCCN2CCCC2)CNCC1
MIC80 (Cryptococcus neoformans): 64 µg/mL (≈ 226 µM)

Clc1ccc(OCCCn2c3c(c4cc(Br)ccc42)CCNC3)cc1.O=C(O)C(F)(F)F
solubility [2]: 19.3 µg/mL
MIC80 (Cryptococcus neoformans): 0.5 µg/mL

Fc1ccc(OCCCn2c3c(c4ccccc42)CCNC3)cc1.O=C(O)C(F)(F)F
MIC80 (Cryptococcus neoformans): 8 µg/mL

CCOc1ccccc1NCCCn1c2c(c3ccccc31)CCNC2.O=C(O)C(F)(F)F
MIC80 (Cryptococcus neoformans): 32 µg/mL

COc1ccccc1OCCCn1c2c(c3ccccc31)CCNC2.O=C(O)C(F)(F)F
MIC80 (Cryptococcus neoformans): 32 µg/mL

COc1ccccc1NCCCn1c2c(c3ccccc31)CCNC2.O=C(O)C(F)(F)F
MIC80 (Cryptococcus neoformans): 32 µg/mL

Brc1cccc(OCCCn2c3c(c4ccccc42)CCNC3)c1.O=C(O)C(F)(F)F
MIC80 (Cryptococcus neoformans): 4 µg/mL

Brc1ccccc1OCCCn1c2c(c3ccccc31)CCNC2.O=C(O)C(F)(F)F
MIC80 (Cryptococcus neoformans): 8 µg/mL

Clc1ccc(NCCCn2c3c(c4ccccc42)CCNC3)cc1.O=C(O)C(F)(F)F
MIC80 (Cryptococcus neoformans): 8 µg/mL

— ChEMBL document CHEMBL4400538, “Discovery of Carboline Derivatives as Potent Antifungal Agents for the Treatment of Cryptococcal Meningitis” (J Med Chem, 2019)
